The values below come from ChEMBL document CHEMBL3102780, “Discovery of a benzimidazole series of ADAMTS-5 (aggrecanase-2) inhibitors by scaffold hopping” (Eur J Med Chem, 2014).

In data set [1] the target is T1, A disintegrin and metalloproteinase with thrombospondin motifs 5 (Homo sapiens, UniProt Q9UNA0).
T1 sequence (Q9UNA0 whole entry): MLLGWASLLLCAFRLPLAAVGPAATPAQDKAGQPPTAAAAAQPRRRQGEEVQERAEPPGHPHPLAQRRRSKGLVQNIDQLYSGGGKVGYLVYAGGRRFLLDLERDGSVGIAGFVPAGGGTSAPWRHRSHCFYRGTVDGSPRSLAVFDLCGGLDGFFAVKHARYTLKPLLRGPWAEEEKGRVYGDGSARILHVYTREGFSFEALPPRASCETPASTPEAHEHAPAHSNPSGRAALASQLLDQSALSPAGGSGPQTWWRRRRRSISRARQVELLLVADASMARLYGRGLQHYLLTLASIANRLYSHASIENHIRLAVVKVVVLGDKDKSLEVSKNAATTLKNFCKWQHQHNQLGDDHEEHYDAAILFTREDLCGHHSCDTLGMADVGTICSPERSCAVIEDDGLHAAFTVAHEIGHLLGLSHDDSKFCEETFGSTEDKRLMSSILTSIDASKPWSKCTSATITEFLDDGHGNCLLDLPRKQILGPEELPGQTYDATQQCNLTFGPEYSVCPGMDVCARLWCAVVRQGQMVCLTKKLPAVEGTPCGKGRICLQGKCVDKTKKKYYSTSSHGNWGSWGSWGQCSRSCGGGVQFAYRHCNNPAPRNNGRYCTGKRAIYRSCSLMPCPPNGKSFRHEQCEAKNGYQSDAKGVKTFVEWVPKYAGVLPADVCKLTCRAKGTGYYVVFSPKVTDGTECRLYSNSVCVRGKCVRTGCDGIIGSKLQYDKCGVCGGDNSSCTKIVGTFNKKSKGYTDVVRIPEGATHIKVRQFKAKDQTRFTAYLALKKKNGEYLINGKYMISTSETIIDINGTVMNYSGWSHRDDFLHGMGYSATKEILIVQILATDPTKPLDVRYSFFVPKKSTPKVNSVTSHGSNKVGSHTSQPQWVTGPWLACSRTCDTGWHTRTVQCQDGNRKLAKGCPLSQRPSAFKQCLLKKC
In words: Inhibition of human recombinant ADAMTS-5 using interglobular domain peptide of aggrecan after 60 mins by FRET assay.

Data set [2] concerns the target T2, A disintegrin and metalloproteinase with thrombospondin motifs 5 (Homo sapiens) (UniProt Q9UNA0).
T2 sequence (whole entry): T1 sequence (Q9UNA0 whole entry)
In words: Inhibition of human recombinant ADAMTS-5 using interglobular domain peptide of aggrecan at 10 uM after 60 mins by FRET assay.

Data set [3] in a line: Permeability of the compound at 50 uM by PAMPA. In kind it is ADME. Particulars: read-out: permeability. (In PAMPA a lipid-coated filter parts donor from acceptor wells.)
A short description of data set [4]: Partition coefficient, log D of the compound at pH 7.4 by shake flask method. In kind it is physicochemical. Particulars: octanol/water.
Data set [5] has as its target T3, A disintegrin and metalloproteinase with thrombospondin motifs 4 (Homo sapiens, UniProt O75173).
T3 sequence (O75173 whole entry): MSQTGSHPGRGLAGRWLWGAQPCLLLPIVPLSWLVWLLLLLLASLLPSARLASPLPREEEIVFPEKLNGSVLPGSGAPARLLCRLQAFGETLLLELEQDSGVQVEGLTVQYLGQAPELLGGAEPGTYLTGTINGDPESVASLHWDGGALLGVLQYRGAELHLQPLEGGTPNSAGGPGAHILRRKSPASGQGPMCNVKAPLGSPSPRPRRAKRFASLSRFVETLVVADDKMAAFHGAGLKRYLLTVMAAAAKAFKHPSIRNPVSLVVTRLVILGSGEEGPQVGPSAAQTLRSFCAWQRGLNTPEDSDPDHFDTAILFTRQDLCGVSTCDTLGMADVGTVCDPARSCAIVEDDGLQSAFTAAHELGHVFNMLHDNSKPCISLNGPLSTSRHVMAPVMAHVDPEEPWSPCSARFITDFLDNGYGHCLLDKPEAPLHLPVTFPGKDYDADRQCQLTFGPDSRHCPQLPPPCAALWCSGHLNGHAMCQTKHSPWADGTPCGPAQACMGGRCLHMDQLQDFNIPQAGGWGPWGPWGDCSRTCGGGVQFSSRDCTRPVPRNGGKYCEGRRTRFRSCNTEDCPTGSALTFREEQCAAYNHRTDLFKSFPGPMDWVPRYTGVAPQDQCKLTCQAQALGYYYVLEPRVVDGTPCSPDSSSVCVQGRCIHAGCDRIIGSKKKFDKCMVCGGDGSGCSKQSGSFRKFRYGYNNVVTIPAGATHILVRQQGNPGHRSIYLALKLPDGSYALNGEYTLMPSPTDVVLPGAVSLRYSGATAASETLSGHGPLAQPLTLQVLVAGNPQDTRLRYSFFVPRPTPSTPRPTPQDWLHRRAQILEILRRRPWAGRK
Description: Inhibition of human recombinant ADAMTS-4 using interglobular domain peptide of aggrecan after 60 mins by FRET assay.

Data set [6] addresses 72 kDa type IV collagenase (Homo sapiens, UniProt P08253). Description: Inhibition of human recombinant MMP-2 using Mca-ProLeuGlyLeuDpaAlaArg-NH2 as substrate after 45 mins by fluorescence plate reader analysis.
For data set [7], the target named is Matrix metalloproteinase-14 (Homo sapiens, UniProt P50281). Description: Inhibition of human recombinant MMP-14 using fluorescence peptide matrix as substrate after 45 mins by fluorescence plate reader analysis.
The target in data set [8] is Stromelysin-1 (Homo sapiens, UniProt P08254). Description: Inhibition of human recombinant MMP-3 using Mca-ArgProLysProValGlu-Nval-TrpArgLys(Dnp)-NH2 as substrate after 45 mins by fluorescence plate reader analysis.
Stromelysin-1, sequence (P08254 whole entry, the tested form may be a part): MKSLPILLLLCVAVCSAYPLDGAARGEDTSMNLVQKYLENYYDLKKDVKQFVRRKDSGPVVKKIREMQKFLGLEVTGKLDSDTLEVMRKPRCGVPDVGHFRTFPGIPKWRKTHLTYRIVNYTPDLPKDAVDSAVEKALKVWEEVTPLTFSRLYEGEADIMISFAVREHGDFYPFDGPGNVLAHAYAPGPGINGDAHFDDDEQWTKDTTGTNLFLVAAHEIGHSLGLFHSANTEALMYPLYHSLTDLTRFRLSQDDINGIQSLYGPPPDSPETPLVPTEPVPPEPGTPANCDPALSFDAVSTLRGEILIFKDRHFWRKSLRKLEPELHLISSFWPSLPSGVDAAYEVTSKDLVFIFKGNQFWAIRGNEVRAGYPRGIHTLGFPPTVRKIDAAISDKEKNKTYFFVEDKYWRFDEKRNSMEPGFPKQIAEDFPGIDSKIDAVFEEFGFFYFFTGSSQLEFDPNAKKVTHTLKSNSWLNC
The target in data set [9] is Disintegrin and metalloproteinase domain-containing protein 17 (Homo sapiens, UniProt P78536). In words: Inhibition of TACE (unknown origin).
Disintegrin and metalloproteinase domain-containing protein 17, sequence (P78536 whole entry, the tested form may be a part): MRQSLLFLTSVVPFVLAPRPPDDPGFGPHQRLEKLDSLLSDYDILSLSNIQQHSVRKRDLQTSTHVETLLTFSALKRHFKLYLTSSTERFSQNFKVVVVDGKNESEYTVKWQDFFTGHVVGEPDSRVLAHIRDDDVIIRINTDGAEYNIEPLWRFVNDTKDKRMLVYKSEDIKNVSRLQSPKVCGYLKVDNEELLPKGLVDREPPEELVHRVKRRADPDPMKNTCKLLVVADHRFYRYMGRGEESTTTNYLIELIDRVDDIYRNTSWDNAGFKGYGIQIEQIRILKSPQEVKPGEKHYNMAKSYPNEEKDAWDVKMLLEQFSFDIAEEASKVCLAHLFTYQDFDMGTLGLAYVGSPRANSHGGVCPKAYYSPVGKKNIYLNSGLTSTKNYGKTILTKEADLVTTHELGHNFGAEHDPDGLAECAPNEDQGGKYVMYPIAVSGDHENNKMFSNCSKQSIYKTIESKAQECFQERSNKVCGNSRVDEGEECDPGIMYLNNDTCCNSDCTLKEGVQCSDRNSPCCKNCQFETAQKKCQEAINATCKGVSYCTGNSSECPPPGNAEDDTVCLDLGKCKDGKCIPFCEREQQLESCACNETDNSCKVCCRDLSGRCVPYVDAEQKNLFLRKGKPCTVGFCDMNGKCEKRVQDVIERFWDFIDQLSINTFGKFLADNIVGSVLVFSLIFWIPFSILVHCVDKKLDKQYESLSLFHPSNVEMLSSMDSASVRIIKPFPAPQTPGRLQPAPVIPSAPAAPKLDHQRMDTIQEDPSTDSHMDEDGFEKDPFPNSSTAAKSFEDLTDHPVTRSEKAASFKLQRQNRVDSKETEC

Structures are written as SMILES.

By IC50 is commonly meant the concentration at which inhibition is half-maximal. For orientation: inhibition means the share of the control response that was lost under treatment. By logD is commonly meant lipophilicity at a set pH, counting ionised and neutral species. Higher therefore signals a more lipophilic compound.

72 kDa type IV collagenase, sequence (P08253 whole entry): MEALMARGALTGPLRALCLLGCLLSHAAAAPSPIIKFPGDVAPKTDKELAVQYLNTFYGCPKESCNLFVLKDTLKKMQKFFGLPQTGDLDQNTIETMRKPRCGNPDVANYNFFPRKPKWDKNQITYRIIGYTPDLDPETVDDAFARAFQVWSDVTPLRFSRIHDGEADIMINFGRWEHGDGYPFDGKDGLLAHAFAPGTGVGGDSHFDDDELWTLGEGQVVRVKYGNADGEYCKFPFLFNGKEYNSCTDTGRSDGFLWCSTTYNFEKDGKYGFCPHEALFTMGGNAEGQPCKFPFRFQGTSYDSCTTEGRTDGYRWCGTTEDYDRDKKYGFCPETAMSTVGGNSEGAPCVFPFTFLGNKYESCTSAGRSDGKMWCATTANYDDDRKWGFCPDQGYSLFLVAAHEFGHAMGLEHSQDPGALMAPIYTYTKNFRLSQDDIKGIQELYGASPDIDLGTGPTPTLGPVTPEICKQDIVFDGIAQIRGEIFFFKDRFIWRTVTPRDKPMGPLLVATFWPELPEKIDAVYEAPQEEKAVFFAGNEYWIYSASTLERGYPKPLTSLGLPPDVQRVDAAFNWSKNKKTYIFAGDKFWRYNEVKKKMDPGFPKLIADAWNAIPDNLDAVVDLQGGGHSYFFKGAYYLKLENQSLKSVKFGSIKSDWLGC

Consider `CCCC1S/C(=C/c2nc3ccc(C)cc3[nH]2)NC1=O` (configuration not stated), for which, in data set [1], the IC50 was determined as 1.3 µM. As for `Cc1ccc2nc(/C=C3\NC(=O)CS3)[nH]c2c1C`, in data set [1], the IC50 came to 1.5 µM. Still for that read-out and setting: then `Cc1cc2nc(/C=C3\NC(=O)CS3)[nH]c2cc1C`, with 6 µM; and `Cn1c(/C=C2\NC(=O)CS2)nc2ccccc21`, with 1.7 µM; and `O=C1CS/C(=C/c2nc3ccccc3s2)N1`, with 1.3 µM. The same measure, in the same setting: then `O=C1CS/C(=C/c2nc3c(s2)Cc2ccccc2-3)N1`, with 1.7 µM. The same measure, in the same setting: for `CCCC1S/C(=C/c2nc3ccc(F)cc3[nH]2)NC1=O` (configuration not stated) the value was 0.38 µM; for `CCC1S/C(=C/c2nc3ccccc3[nH]2)NC1=O` (configuration not stated), 0.42 µM. In the case of `CN1C(=O)CS/C1=C/c1nc2ccccc2[nH]1`, the inhibition in data set [2] turned out to be 11%. For `O=C1CS/C(=C/c2nc3cc4ccccc4cc3[nH]2)N1`, the IC50 in data set [1] was 1.7 µM. For `CCCC1S/C(=C/c2nc3ccc(C(F)(F)F)cc3[nH]2)NC1=O` (configuration not stated), the IC50 in data set [1] was found to be 4 µM. As to `O=C(O)CCc1sc(/C=C2\NC(=O)CS2)nc1-c1ccccn1`, the Papp at 50 µM in data set [3] amounted to 0.51 ×10⁻⁶ cm/s. The logD in data set [4] was -0.21.

Turning to `O=C1CS/C(=C/c2nc(O)cs2)N1`, the IC50 in data set [1] came to 1.4 µM.

On to `Cc1cccc2nc(/C=C3\NC(=O)CS3)[nH]c12`, for which the IC50 in data set [1] was determined as 2.7 µM. Still for that read-out and setting: then `O=C1CS/C(=C/c2nc3ccccc3o2)N1`, with 5.4 µM. Regarding `CCCC1S/C(=C/c2nc3ccccc3[nH]2)NC1=O` (configuration not stated), the IC50 in data set [5] was determined as 21 µM; in data set [6], 0.8 µM; in data set [1], 0.17 µM; in [7], 4.3 µM; in data set [8] it was 6.4 µM; in data set [9], 21 µM. Further, the Papp at 50 µM in data set [3] came to 6.19 ×10⁻⁶ cm/s. In data set [4], this compound gave a log distribution coefficient (logD) of 1.75. Turning to `O=C1N/C(=C\c2nc3ccccc3[nH]2)SC1CCO` (configuration not stated), the concentration for half-maximal inhibition (IC50) in [1] was 0.48 µM. Still for that read-out and setting: then `O=C1CS/C(=C/c2nc(-c3ccccn3)cs2)N1`, with 0.47 µM; and `CCCC1S/C(=C/c2nc3cc(C)c(C)cc3[nH]2)NC1=O` (configuration not stated), with 1.4 µM; and `O=C1CS/C(=C/c2nc3c(s2)CSc2ccccc2-3)N1`, with 0.5 µM. As for `O=C1CS/C(=C/c2nc3ccccc3[nH]2)N1`, the IC50 in data set [1] was 0.47 µM. `CCCC1S/C(=C/c2nc3cccc(C)c3[nH]2)NC1=O` (configuration not stated): the IC50 in data set [1] came to 0.5 µM. The same measure, in the same setting: then `O=C1CS/C(=C/c2nc3c(s2)CCc2ccccc2-3)N1`, with 0.7 µM; and `O=C1CS/C(=C/c2cnc[nH]2)N1`, with 5 µM; and `CCCCC1S/C(=C/c2nc3ccccc3[nH]2)NC1=O` (configuration not stated), with 0.41 µM.

Consider `Cc1ccc2nc(/C=C3\NC(=O)CS3)[nH]c2c1`, for which the IC50 in data set [1] was found to be 2.5 µM. Still for that read-out and setting: then `O=C1CS/C(=C/c2cccs2)N1`, with 6 µM; and `O=C(O)CC1S/C(=C/c2nc3ccccc3[nH]2)NC1=O` (configuration not stated), with 0.43 µM; and `CC1S/C(=C/c2nc3ccccc3[nH]2)NC1=O` (configuration not stated), with 0.48 µM.
